Assay results published in ChEMBL document CHEMBL5036359, “Repositioning Food and Drug Administration-Approved Drugs for Inhibiting Biliverdin IXβ Reductase B as a Novel Thrombocytopenia Therapeutic Target” (J Med Chem, 2022).

How the values were obtained:
[1] = molecular target: T1, Flavin reductase (NADPH) (Homo sapiens) (UniProt P30043); experiment: Binding affinity to human N-terminal His6-tagged and thrombin cleavage fused BLVRB expressed in Escherichia coli BL21 (DE3) assessed as change in enthalpy by isothermal titration calorimetry
T1 sequence (whole entry): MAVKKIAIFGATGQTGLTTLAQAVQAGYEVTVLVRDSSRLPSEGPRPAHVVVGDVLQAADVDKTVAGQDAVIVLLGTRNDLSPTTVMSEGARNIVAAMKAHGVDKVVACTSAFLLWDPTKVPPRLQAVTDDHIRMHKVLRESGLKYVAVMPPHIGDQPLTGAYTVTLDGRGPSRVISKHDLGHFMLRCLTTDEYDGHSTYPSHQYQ

[2] = molecular target: T1, Flavin reductase (NADPH) (Homo sapiens); experiment: Binding affinity to human N-terminal His6-tagged and thrombin cleavage fused BLVRB expressed in Escherichia coli BL21 (DE3) assessed as change in entropy by isothermal titration calorimetry
[3] = molecular target: T1, Flavin reductase (NADPH) (Homo sapiens); experiment: Binding affinity to human N-terminal His6-tagged and thrombin cleavage fused BLVRB expressed in Escherichia coli BL21 (DE3) assessed as change in gibbs free energy by isothermal titration calorimetry
Flavin reductase (NADPH) = molecular target: T2, Flavin reductase (NADPH) (Homo sapiens, UniProt P30043); experiment: Binding affinity to human N-terminal His6-tagged and thrombin cleavage fused BLVRB expressed in Escherichia coli BL21 (DE3) assessed as dissociation constant by isothermal titration calorimetry
T2 sequence (P30043 whole entry): T1 sequence (whole entry)

Row | SMILES | deltaH [1] | TdeltaS [2] | deltaG [3] | Kd (Flavin reductase (NADPH))
1 | O=C(O)c1cc(/N=N/c2ccc(S(=O)(=O)Nc3ccccn3)cc2)ccc1O | -9.43 kcal/mol | -0.76 kcal/mol | -8.67 kcal/mol | 
2 | Cc1nc(-c2ccc(OCC(C)C)c(C#N)c2)sc1C(=O)O [FEBUXOSTAT] | -5.75 kcal/mol | 2.14 kcal/mol | -7.9 kcal/mol | 1630 nM
3 | O=C(O)c1c(Cl)c(Cl)c(Cl)c(Cl)c1-c1c2cc(Br)c(=O)c(Br)c-2oc2c(Br)c(O)c(Br)cc12 | -3.88 kcal/mol | 4.12 kcal/mol | -8 kcal/mol | 1360 nM

More lines, now with the values ahead:

Row | deltaH [1] | TdeltaS [2] | deltaG [3] | Kd (Flavin reductase (NADPH)) | SMILES
4 | -6.38 kcal/mol | 2.91 kcal/mol | -9.28 kcal/mol | 160 nM | O=C1OC2(c3ccccc31)c1cc(I)c(O)c(I)c1Oc1c2cc(I)c(O)c1I [ERYTHROSINE]
5 | -4.49 kcal/mol | 3.5 kcal/mol | -7.99 kcal/mol |  | CC1(C)CCC(C)(C)c2cc(NC(=O)c3ccc(C(=O)O)cc3)ccc21
6 | -11 kcal/mol | -1.83 kcal/mol | -9.13 kcal/mol | 200 nM | O=C(O)c1cccc(-c2noc(-c3ccccc3F)n2)c1
7 | -7.32 kcal/mol | 0.55 kcal/mol | -7.87 kcal/mol | 1710 nM | O=C(O)c1ccc(-n2nc(-c3ccccc3O)nc2-c2ccccc2O)cc1 [DEFERASIROX]
